From ChEMBL document CHEMBL3734705, “Synthesis and in vitro cytotoxicity of novel C-12 substituted-14-deoxy-andrographolide derivatives as potent anti-cancer agents” (2015)
Calls of active or inactive are those of the source. The rule behind the calls is not given here.

What was measured:
KM12 = assay: Cytotoxicity against human KM12 cells assessed as growth inhibition at 10 uM after 48 hrs by SRB assay; assay type: functional; conditions: KM12, 48 h, read-out: GI
[1] = Cytotoxicity against human Caki1 cells assessed as growth inhibition at 10 uM after 48 hrs by SRB assay; assay type: functional; conditions: CAKI-1, 48 h, read-out: GI
[2] = Cytotoxicity against human SW620 cells assessed as growth inhibition at 10 uM after 48 hrs by SRB assay; assay type: functional; conditions: SW-620, 48 h, read-out: GI
[3] = Cytotoxicity against human SF295 cells assessed as growth inhibition at 10 uM after 48 hrs by SRB assay; assay type: functional; conditions: SF-295, 48 h, read-out: GI
ACHN = assay: Cytotoxicity against human ACHN cells assessed as growth level at 10 uM after 48 hrs by SRB assay; assay type: functional
[4] = Cytotoxicity against human OVCAR4 cells assessed as growth inhibition at 10 uM after 48 hrs by SRB assay; assay type: functional; conditions: OVCAR-4, 48 h, read-out: GI
MDA-MB-435 [5] = assay: Cytotoxicity against human MDA-MB-435 cells assessed as growth inhibition at 10 uM after 48 hrs by SRB assay; assay type: functional; conditions: MDA-MB-435, 48 h, read-out: GI
K562 = assay: Cytotoxicity against human K562 cells assessed as growth inhibition at 10 uM after 48 hrs by SRB assay; assay type: functional; conditions: K562, 48 h, read-out: GI
[6] = Cytotoxicity against human DU145 cells assessed as growth level at 10 uM after 48 hrs by SRB assay; assay type: functional, DU-145
[7] = Cytotoxicity against human HCT116 cells assessed as growth level at 10 uM after 48 hrs by SRB assay; assay type: functional, HCT-116
786-0 [8] = assay: Cytotoxicity against human 786-0 cells assessed as growth inhibition at 10 uM after 48 hrs by SRB assay; assay type: functional; conditions: 786-0, 48 h, read-out: GI
[9] = Cytotoxicity against human HCC2998 cells assessed as growth inhibition at 10 uM after 48 hrs by SRB assay; assay type: functional; conditions: HCC 2998, 48 h, read-out: GI
[10] = Cytotoxicity against human OVCAR3 cells assessed as growth level at 10 uM after 48 hrs by SRB assay; assay type: functional, OVCAR-3
[11] = Cytotoxicity against human OVCAR3 cells assessed as growth inhibition at 10 uM after 48 hrs by SRB assay; assay type: functional; conditions: OVCAR-3, 48 h, read-out: GI
[12] = Cytotoxicity against human COLO205 cells assessed as growth level at 10 uM after 48 hrs by SRB assay; assay type: functional, COLO 205
U-251 [13] = assay: Cytotoxicity against human U251 cells assessed as growth level at 10 uM after 48 hrs by SRB assay; assay type: functional
M14 = assay: Cytotoxicity against human M14 cells assessed as growth level at 10 uM after 48 hrs by SRB assay; assay type: functional
[14] = Cytotoxicity against human SF295 cells assessed as growth level at 10 uM after 48 hrs by SRB assay; assay type: functional, SF-295
[15] = Cytotoxicity against human COLO205 cells assessed as growth inhibition at 10 uM after 48 hrs by SRB assay; assay type: functional; conditions: COLO 205, 48 h, read-out: GI
[16] = Cytotoxicity against human HOP92 cells assessed as growth level at 10 uM after 48 hrs by SRB assay; assay type: functional, HOP-92
[17] = Cytotoxicity against human HCC2998 cells assessed as growth level at 10 uM after 48 hrs by SRB assay; assay type: functional, HCC 2998
MDA-MB-435 [18] = assay: Cytotoxicity against human MDA-MB-435 cells assessed as growth level at 10 uM after 48 hrs by SRB assay; assay type: functional
[19] = Cytotoxicity against human SNB75 cells assessed as growth level at 10 uM after 48 hrs by SRB assay; assay type: functional, SNB-75
[20] = Cytotoxicity against human LOXIMVI cells assessed as growth level at 10 uM after 48 hrs by SRB assay; assay type: functional, LOX IMVI
786-0 [21] = assay: Cytotoxicity against human 786-0 cells assessed as growth level at 10 uM after 48 hrs by SRB assay; assay type: functional
[22] = Cytotoxicity against human SNB19 cells assessed as growth inhibition at 10 uM after 48 hrs by SRB assay; assay type: functional; conditions: SNB-19, 48 h, read-out: GI
NCI-H23 = assay: Cytotoxicity against human NCI-H23 cells assessed as growth level at 10 uM after 48 hrs by SRB assay; assay type: functional
U-251 [23] = assay: Cytotoxicity against human U251 cells assessed as growth inhibition at 10 uM after 48 hrs by SRB assay; assay type: functional; conditions: U-251, 48 h, read-out: GI
[24] = Cytotoxicity against human DU145 cells assessed as growth inhibition at 10 uM after 48 hrs by SRB assay; assay type: functional; conditions: DU-145, 48 h, read-out: GI
A549 = assay: Cytotoxicity against human A549 cells assessed as growth inhibition at 10 uM after 48 hrs by SRB assay; assay type: functional; conditions: A549, 48 h, read-out: GI
[25] = Cytotoxicity against human SF268 cells assessed as growth inhibition at 10 uM after 48 hrs by SRB assay; assay type: functional; conditions: SF-268, 48 h, read-out: GI
[26] = Cytotoxicity against human SKOV3 cells assessed as growth inhibition at 10 uM after 48 hrs by SRB assay; assay type: functional; conditions: SK-OV-3, 48 h, read-out: GI
SK-MEL-28 = assay: Cytotoxicity against human SK-MEL-28 cells assessed as growth inhibition at 10 uM after 48 hrs by SRB assay; assay type: functional; conditions: SK-MEL-28, 48 h, read-out: GI
EKVX = assay: Cytotoxicity against human EKVX cells assessed as growth inhibition at 10 uM after 48 hrs by SRB assay; assay type: functional
[27] = Cytotoxicity against human Hs578T cells assessed as growth level at 10 uM after 48 hrs by SRB assay; assay type: functional, Hs-578T
[28] = Cytotoxicity against human OVCAR4 cells assessed as growth level at 10 uM after 48 hrs by SRB assay; assay type: functional, OVCAR-4
MCF7 = assay: Cytotoxicity against human MCF7 cells assessed as growth inhibition at 10 uM after 48 hrs by SRB assay; assay type: functional; conditions: MCF7, 48 h, read-out: GI
[29] = Cytotoxicity against human Caki1 cells assessed as growth level at 10 uM after 48 hrs by SRB assay; assay type: functional, CAKI-1
[30] = Cytotoxicity against human IGROV1 cells assessed as growth level at 10 uM after 48 hrs by SRB assay; assay type: functional, IGROV-1
SR = assay: Cytotoxicity against human SR cells assessed as growth level at 10 uM after 48 hrs by SRB assay; assay type: functional
[31] = Cytotoxicity against human PC3 cells assessed as growth level at 10 uM after 48 hrs by SRB assay; assay type: functional, PC-3
SK-MEL-5 = assay: Cytotoxicity against human SK-MEL-5 cells assessed as growth inhibition at 10 uM after 48 hrs by SRB assay; assay type: functional; conditions: SK-MEL-5, 48 h, read-out: GI
NCI-H522 = assay: Cytotoxicity against human NCI-H522 cells assessed as growth level at 10 uM after 48 hrs by SRB assay; assay type: functional
HT-29 = assay: Cytotoxicity against human HT-29 cells assessed as growth level at 10 uM after 48 hrs by SRB assay; assay type: functional

Q: For C=C1CC[C@@H]2[C@](C)(COC(C)=O)[C@H](OC(C)=O)CC[C@@]2(C)[C@@H]1CC(NCc1ccccc1)C1=CCOC1=O (mixture of isomers), which inhibition of growth at 10 µM (KM12) is on record?
A: 60.9%

Q: What about the inhibition of growth at 10 µM [1] of the same compound?
A: 50.4%

Q: And the inhibition of growth at 10 µM [2]?
A: 52.7%

Q: What about the inhibition of growth at 10 µM [3] of the same compound?
A: 36.1%

Q: And the Activity (ACHN)?
A: 46.39%

Q: What about the inhibition of growth at 10 µM [4] of the same compound?
A: 64.1%

Q: What about the inhibition of growth at 10 µM (MDA-MB-435 [5]) of the same compound?
A: 72.1%

Q: And the inhibition of growth at 10 µM (K562)?
A: 75.3%

Q: What about the Activity [6] of the same compound?
A: 67.16%

Q: And the Activity [7]?
A: 42.32%

Q: What about the inhibition of growth at 10 µM (786-0 [8]) of the same compound?
A: 28.6%

Q: What about the inhibition of growth at 10 µM [9] of the same compound?
A: 6.31%

Q: And the Activity [10]?
A: 31.82%

Q: What about the inhibition of growth at 10 µM [11] of the same compound?
A: 68.2%

Q: What about the Activity [12] of the same compound?
A: 45.59%

Q: What about the Activity (U-251 [13]) of the same compound?
A: 47.58%

Q: What about the Activity (M14) of the same compound?
A: 42.07%

Q: And the Activity [14]?
A: 63.88%

Q: And the inhibition of growth at 10 µM [15]?
A: 54.4%

Q: And the Activity [16]?
A: 41.66%

Q: And the Activity [17]?
A: 93.69%

Q: And the Activity (MDA-MB-435 [18])?
A: 27.9%

Q: And the Activity [19]?
A: 76.94%

Q: And the Activity [20]?
A: 44.58%

Q: What about the Activity (786-0 [21]) of the same compound?
A: 71.35%

Q: And the inhibition of growth at 10 µM [22]?
A: 31.8%

Q: And the Activity (NCI-H23)?
A: 57.36%

Q: And the inhibition of growth at 10 µM (U-251 [23])?
A: 52.4%

Q: And the inhibition of growth at 10 µM [24]?
A: 32.8%

Q: And the inhibition of growth at 10 µM (A549)?
A: 50.8%

Q: What about the inhibition of growth at 10 µM [25] of the same compound?
A: 37.9%

Q: And the inhibition of growth at 10 µM [26]?
A: 20.8%

Q: And the inhibition of growth at 10 µM (SK-MEL-28)?
A: 31.4%

Q: And the inhibition of growth at 10 µM (EKVX; read-out: GI)?
A: 46.1%

Q: What about the Activity [27] of the same compound?
A: 86.43%

Q: And the Activity [28]?
A: 35.88%

Q: And the inhibition of growth at 10 µM (MCF7)?
A: 70.2%

Q: What about the Activity [29] of the same compound?
A: 49.62%

Q: What about the Activity [30] of the same compound?
A: 62.9%

Q: And the Activity (SR)?
A: 20.89%

Q: And the Activity [31]?
A: 10.07%

Q: With C=C1CC[C@@H]2[C@](C)(CO)[C@H](O)CC[C@@]2(C)[C@@H]1C/C=C1/C(=O)OC[C@H]1O [ANDROGRAPHOLIDE] as the compound, how does the inhibition of growth at 10 µM (KM12) read?
A: 19.8%

Q: And the inhibition of growth at 10 µM [1]?
A: 3.3%

Q: And the inhibition of growth at 10 µM [2]?
A: 55.7%

Q: And the Activity (ACHN)?
A: 89.75%

Q: And the inhibition of growth at 10 µM (SK-MEL-5)?
A: 22.7%

Q: And the inhibition of growth at 10 µM [4]?
A: 17.1%

Q: What about the inhibition of growth at 10 µM (MDA-MB-435 [5]) of the same compound?
A: 27.4%

Q: What about the inhibition of growth at 10 µM (K562) of the same compound?
A: 34.5%

Q: What about the Activity [6] of the same compound?
A: 80.06%

Q: What about the Activity [7] of the same compound?
A: 60.01%

Q: And the inhibition of growth at 10 µM (786-0 [8])?
A: 15.3%

Q: And the Activity (NCI-H522)?
A: 17.13%

Q: What about the Activity [10] of the same compound?
A: 59.17%

Q: What about the inhibition of growth at 10 µM [11] of the same compound?
A: 40.8%

Q: What about the Activity [12] of the same compound?
A: 94.9%

Q: What about the Activity (U-251 [13]) of the same compound?
A: 75.79%

Q: And the Activity (M14)?
A: 84.88%

Q: What about the Activity [14] of the same compound?
A: 113.89%

Q: And the inhibition of growth at 10 µM [15]?
A: 5.1%

Q: And the Activity [16]?
A: 107.7%

Q: What about the Activity [17] of the same compound?
A: 114.39%

Q: And the Activity (MDA-MB-435 [18])?
A: 72.62%

Q: And the Activity [19]?
A: 61.95%

Q: And the Activity [20]?
A: 21.84%

Q: And the Activity (786-0 [21])?
A: 84.71%

Q: What about the inhibition of growth at 10 µM [22] of the same compound?
A: 12%

Q: What about the Activity (NCI-H23) of the same compound?
A: 97.89%

Q: What about the inhibition of growth at 10 µM (U-251 [23]) of the same compound?
A: 24.2%

Q: What about the inhibition of growth at 10 µM [24] of the same compound?
A: 19.9%

Q: What about the inhibition of growth at 10 µM (A549) of the same compound?
A: 12.2%

Q: And the inhibition of growth at 10 µM [25]?
A: 2.34%

Q: And the inhibition of growth at 10 µM (SK-MEL-28)?
A: 4.54%

Q: What about the Activity (HT-29) of the same compound?
A: 27%

Q: And the “growth inhibition (GI)” value (EKVX)?
A: inactive

Q: What about the Activity [27] of the same compound?
A: 110.33%

Q: And the Activity [28]?
A: 82.87%

Q: And the inhibition of growth at 10 µM (MCF7)?
A: 42.2%

Q: And the Activity [29]?
A: 96.7%

Q: And the Activity [30]?
A: 103.71%

Q: What about the Activity (SR) of the same compound?
A: 79.53%

Q: What about the Activity [31] of the same compound?
A: 93.4%
